Tests used:
[1] = tested on: P. aeruginosa, AmpC-overproducing; experiment: MIC of third-generation cephalosporins alone and with compounds (Table 6); assay type: cell-based, Pseudomonas aeruginosa; details: antibiotic alone
Description: (§1) The anti-resistance activity of inhibitors was investigated by the determination of the minimum inhibitory concentrations (MICs) of the β-lactam/inhibitor combination necessary to inhibit the growth of clinically-isolated bacteria resistant to third-generation cephalosporins via expression of class A or class C β-lactamases (Table 6).
(§2) Susceptibility testing was performed and interpreted following the guidelines of CLSI. (Clinical and Laboratory Standards Institute, Performance standards for antimicrobial susceptibility testing, 20th Informational Supplement, M100-S20 2010) The compounds were dissolved in 50% DMSO, and dilutions were performed using Muller-Hinton medium. An adequate final concentration was obtained to determine the minimum inhibitory concentrations (MICs). The concentration of DMSO was maintained below 5%. The inhibitors were tested for synergy with the third-generation β-lactams ceftazidime and cefotaxime against several clinical bacteria. The ratio of β-lactams to inhibitors was 1:4. Each value reported reflects the average of three independent experiments. […] The Friedman's test and the Wilcoxon signed rank test were used to compare MIC values. Statistical significance was established at p<0.05.
Table 6. MICs (μg/ml) of third-generation cephalosporins alone and in association with the compounds (ratio 1/4) for clinical bacteria. […]

[2] = tested on: E. coli overproducing chromosomally-mediated class C β-lactamase; experiment: MIC of third-generation cephalosporins alone and with compounds 4 or 9 (Table 3); assay type: cell-based, Escherichia coli; details: antibiotic alone
From the text: (§3) Antimicrobial activity was investigated quantitatively to determine the minimum inhibitory concentrations (MICs) of the β-lactam/inhibitor combination necessary to inhibit the bacterial growth (Table 3). The MICs of β-lactams alone against the strains corresponded to a high level of resistance according to Clinical and Laboratory Standards Institute (CLSI) standards. (Clinical and Laboratory Standards Institute, Performance standards for antimicrobial susceptibility testing, 20th Informational Supplement, M100-S20 2010) The compounds had no measurable antibiotic activity when used alone.
(§4) Susceptibility testing was performed and interpreted following the guidelines of CLSI. (Clinical and Laboratory Standards Institute, Performance standards for antimicrobial susceptibility testing, 20th Informational Supplement, M100-S20 2010) The compounds were dissolved in 50% DMSO, and dilutions were performed using Muller-Hinton medium. An adequate final concentration was obtained to determine the minimum inhibitory concentrations (MICs). The concentration of DMSO was maintained below 5%. The inhibitors were tested for synergy with the third-generation β-lactams ceftazidime and cefotaxime against several clinical bacteria. […] Each value reported reflects the average of three independent experiments. […] A Klebsiella pneumoniae isolate produced the inducible plasmid-mediated class C enzyme DHA-1. The Friedman's test and the Wilcoxon signed rank test were used to compare MIC values. Statistical significance was established at p<0.05.

[3] = tested on: AmpC-overproducing Escherichia coli strain 4; experiment: Mouse model of bacteremia and sepsis, survival; assay type: in vivo, OF1 mice; details: 120 h post infection; ip at 0.5, 3.5, 6.5 h; imipenem 50 mg/kg, cefotaxime 50 mg/kg, cefotaxime:CR161 50:200 mg/kg
Description: FIG. 17. Percentage of survival of mice infected with AmpC-overproducing Escherichia coli over the course of 5 days (120 h). Mice were inoculated by intraperitoneal injection with AmpC-overproducing Escherichia coli strain 4 (1±0.5 10^9 colony-forming units) and treated at 0.5, 3.5, 6.5 h after infection by intraperitoneal injection of 50 mg/kg imipenem (□, n=20), 50:200 mg/kg cefotaxime:CR161 combination (▪, n=17), 50 mg/kg cefotaxime (●, n=20) or sterile isotonic saline (◯, n=20).
Efficacy in a mouse model of infection. We had not observed such substantial reversal of bacterial resistance to β-lactams, across such a broad spectrum of clinical isolates, for previous series of boronic acid inhibitors of β-lactamase; indeed, this lack of efficacy had motivated this study. These new cell-culture MIC values inspired us to investigate the efficacy of one of these compounds in a mouse model of bacteremia and sepsis. […] Mice were treated with cefotaxime alone, cefotaxime combined with compound CR161, with sterile isotonic saline, and with imipenem as a reference treatment of systemic infections by cephalosporin-resistant enterobacteriaceae (FIG. 17); 20 mice were used in each clade. […]
OF1 mice 4-5 weeks of age and weighing 20-25 g were used in this study. […] The survival of mice in each group was monitored every 6 h for 5 days after infection. […]

[4] = tested on: C. freundii 101, AmpC-overproducing; experiment: MIC of third-generation cephalosporins alone and with compounds (Table 6); assay type: cell-based, Citrobacter freundii; details: antibiotic alone
Description: as §1, §2
(§5) Table 6. MICs (μg/ml) of third-generation cephalosporins alone and in association with the compounds (ratio 1/4) for clinical bacteria. CTX, cefotaxime and CAZ, ceftazidime. ^1, AmpC-overproducing bacteria; ^2, CTX-M-14-producing E. coli; ^3, KPC-2-producing K. pneumoniae; ^4, OXA-48-producing K. pneumoniae; ^5, NDM-1-producing C. freundii.

[5] = tested on: NDM-1-producing C. freundii; experiment: as above; assay type: cell-based, Citrobacter freundii; details: antibiotic alone
Description: as §1, §2, §5

[6] = tested on: C. freundii, AmpC-overproducing; experiment: as above; assay type: cell-based, Citrobacter freundii; details: antibiotic alone
Description: as §1, §2, §5

[7] = tested on: E. cloacae overproducing chromosomally-mediated class C β-lactamase; experiment: MIC of third-generation cephalosporins alone and with compounds 4 or 9 (Table 3); assay type: cell-based, Enterobacter cloacae; details: antibiotic alone
From the text: as §3, §4

CO/N=C(\C(=O)N[C@@H]1C(=O)N2C(C(=O)O)=C(COC(C)=O)CS[C@H]12)c1csc(N)n1 [Cefotaxime]
MIC, cephalosporin alone [1]: >128 µg/mL
MIC, cephalosporin alone [2]: 8 µg/mL
survival [3]: 15%
MIC, cephalosporin alone [4]: 64 µg/mL
MIC, cephalosporin alone [5]: 512 µg/mL
MIC, cephalosporin alone [6]: 16 µg/mL
MIC, cephalosporin alone [7]: 64 µg/mL

— patent US9371337B2, “β-lactamase inhibitors” (The Regents of the University of California, priority 2011, dated 2016)
